≈ marks a conversion by molar mass, not a printed value. Read-outs that look alike come from different tables or passages of the source.
Columns and labels:
[1] = test system: Staphylococcus aureus ATCC 29213; assay: NCCLS broth microdilution MIC/MBC; type: cell-based; details: for MIC: Staphylococcus aureus, ATCC29213, read-out: MIC
Proteus vulgaris RMIT = assay: NCCLS broth microdilution MIC/MBC; type: cell-based; details: for MIC: Proteus vulgaris, read-out: MIC
[2] = test system: Escherichia coli ATCC 25922; assay: NCCLS broth microdilution MIC/MBC; type: cell-based; details: for MIC: Escherichia coli, ATCC25922, read-out: MIC
Serratia marcescens RMIT = assay: NCCLS broth microdilution MIC/MBC; type: cell-based; details: for MIC: Serratia marcescens, read-out: MIC
[3] = test system: Pseudomonas aeruginosa ATCC 27853; assay: NCCLS broth microdilution MIC/MBC; type: cell-based; details: for MIC: Pseudomonas aeruginosa, ATCC27853, read-out: MIC
Mycobact tub. H.37RV = assay: Anti-TB effect, serial double dilution in liquid medium; type: cell-based, M tuberculosis; details: 10-14 days incubation at 37° C.; read-out: Minimal Inhibitory Concentration
[4] = test system: Neisseria meningitidis M-6231; assay: Sensitivity of strains: suppression of growth; type: cell-based; details: Compound (1) 1.0%; antibiotics disc method
[5] = test system: Corynebacterium diphtheriae B-670; assay: Sensitivity of strains: suppression of growth; type: cell-based; details: Compound (1) 1.0%; antibiotics disc method
[6] = test system: Conditional pathogenic enterobacteria gram-negative aerobic bacilli; type: cell-based; further: key: + sensitive strains; + moderately sensitive strains; − stable strains
[7] = test system: Staphylococci epidermidis D-513; assay: Sensitivity of strains: suppression of growth; type: cell-based; details: Compound (1) 1.0%; antibiotics disc method
[8] = test system: Klebsiella pneumoniae M-A21; assay: Sensitivity of strains: suppression of growth; type: cell-based; details: Compound (1) 1.0%; antibiotics disc method
[9] = test system: Neisseria meningitidis M-A72; assay: Sensitivity of strains: suppression of growth; type: cell-based; details: Compound (1) 1.0%; antibiotics disc method
[10] = test system: Staphylococcus aureus M-209; assay: Sensitivity of strains: suppression of growth; type: cell-based; details: Compound (1) 1.0%; antibiotics disc method
Acinetobacter B-681 = assay: Sensitivity of strains: suppression of growth; type: cell-based; details: Compound (1) 1.0%; antibiotics disc method
Acinetobacter B-677 = assay: Sensitivity of strains: suppression of growth; type: cell-based; details: Compound (1) 1.0%; antibiotics disc method
[11] = test system: γ-hemolytic streptococcus B-672; assay: Sensitivity of strains: suppression of growth; type: cell-based; details: Compound (1) 1.0%; antibiotics disc method
[12] = test system: Yersinia pseudotuberculosis; type: cell-based; details: Compound (1) 1.0%; antibiotics disc method
Alkaligenes sp. B-667 = assay: Sensitivity of strains: suppression of growth; type: cell-based; details: Compound (1) 1.0%; antibiotics disc method
[13] = test system: Enterobacter aerogenes B-687; assay: Sensitivity of strains: suppression of growth; type: cell-based; details: Compound (1) 1.0%; antibiotics disc method
[14] = test system: Staphylococcus epidermidis BK-30; assay: Sensitivity of strains: suppression of growth; type: cell-based; details: Compound (1) 1.0%; antibiotics disc method
[15] = test system: β-hemolytic streptococcus B-624; assay: Sensitivity of strains: suppression of growth; type: cell-based; details: Compound (1) 1.0%; antibiotics disc method
[16] = test system: Klebsiella pneumoniae M-248; assay: Sensitivity of strains: suppression of growth; type: cell-based; details: Compound (1) 1.0%; antibiotics disc method
[17] = test system: Enterobacter aerogenes B-679; assay: Sensitivity of strains: suppression of growth; type: cell-based; details: Compound (1) 1.0%; antibiotics disc method
[18] = test system: Staphylococcus aureus M-12159; assay: Sensitivity of strains: suppression of growth; type: cell-based; details: Compound (1) 1.0%; antibiotics disc method
[19] = test system: Staphylococcus aureus B-685; assay: Sensitivity of strains: suppression of growth; type: cell-based; details: Compound (1) 1.0%; antibiotics disc method
Acinetobacter B-676 = assay: Sensitivity of strains: suppression of growth; type: cell-based; details: Compound (1) 1.0%; antibiotics disc method
[20] = test system: Citrobacter diversus B-678; assay: Sensitivity of strains: suppression of growth; type: cell-based; details: Compound (1) 1.0%; antibiotics disc method
[21] = test system: Staphylococcus aureus B-674; assay: Sensitivity of strains: suppression of growth; type: cell-based; details: Compound (1) 1.0%; antibiotics disc method
Escherichia coli B-65 = assay: Sensitivity of strains: suppression of growth; type: cell-based; details: Compound (1) 1.0%; antibiotics disc method
[22] = test system: Salmonella paratyphi M-16469; assay: Sensitivity of strains: suppression of growth; type: cell-based; details: Compound (1) 1.0%; antibiotics disc method
[23] = test system: Pseudomonas aeruginosa B-601; assay: Sensitivity of strains: suppression of growth; type: cell-based; details: Compound (1) 1.0%; antibiotics disc method
Escherichia coli M-17 = assay: Sensitivity of strains: suppression of growth; type: cell-based; details: Compound (1) 1.0%; antibiotics disc method
Escherichia coli B-683 = assay: Sensitivity of strains: suppression of growth; type: cell-based; details: Compound (1) 1.0%; antibiotics disc method
Alkaligenes sp. B-689 = assay: Sensitivity of strains: suppression of growth; type: cell-based; details: Compound (1) 1.0%; antibiotics disc method

| SMILES | MIC (Mycobact tub. H.37RV) [µg/mL] | Suppression of Growth (+/−) [4] | Suppression of Growth (+/−) [5] | Suppression of Growth (+/−) [6] | Suppression of Growth (+/−) [7] | Suppression of Growth (+/−) [8] | Suppression of Growth (+/−) [9] | Suppression of Growth (+/−) [10] | Suppression of Growth (+/−) (Acinetobacter B-681) | Suppression of Growth (+/−) (Acinetobacter B-677) | Suppression of Growth (+/−) [11] | Suppression of Growth (+/−) [12] | Suppression of Growth (+/−) (Alkaligenes sp. B-667) | Suppression of Growth (+/−) [13] | Suppression of Growth (+/−) [14] | Suppression of Growth (+/−) [15] | Suppression of Growth (+/−) [16] | Suppression of Growth (+/−) [17] | Suppression of Growth (+/−) [18] | Suppression of Growth (+/−) [19] | also measured |
| --- | --- | --- | --- | --- | --- | --- | --- | --- | --- | --- | --- | --- | --- | --- | --- | --- | --- | --- | --- | --- | --- |
| [H]/N=C(\N/C(=N/[H])NCCCCCCNC(=N)NC(=N)Nc1ccc(Cl)cc1)Nc1ccc(Cl)cc1 [Chlorhexidine] |  |  |  |  |  |  |  |  |  |  |  |  |  |  |  |  |  |  |  |  | MIC ([1]; Table 9, 35° C., 24 hours): 2 µg/mL (≈ 3.96 µM); MIC ([1]; Table 17, 2 or 3 replicates): 2 µg/mL (≈ 3.96 µM); MMC ([1]; Table 9, 35° C., 24 hours): 8 µg/mL; MMC ([1]; Table 17, 2 or 3 replicates): 8 µg/mL; MIC (Proteus vulgaris RMIT; Table 9, 35° C., 24 hours): 6 µg/mL (≈ 11.9 µM); MIC (Proteus vulgaris RMIT; Table 17, 2 or 3 replicates): 6 µg/mL (≈ 11.9 µM); MMC (Proteus vulgaris RMIT; Table 9, 35° C., 24 hours): 128 µg/mL; MMC (Proteus vulgaris RMIT; Table 17, 2 or 3 replicates): 128 µg/mL; MIC ([2]; Table 9, 35° C., 24 hours): 2 µg/mL (≈ 3.96 µM); MIC ([2]; Table 17, 2 or 3 replicates): 2 µg/mL (≈ 3.96 µM); MMC ([2]; Table 9, 35° C., 24 hours): 4 µg/mL; MMC ([2]; Table 17, 2 or 3 replicates): 4 µg/mL; MIC (Serratia marcescens RMIT; Table 9, 35° C., 24 hours): 16 µg/mL (≈ 31.7 µM); MIC (Serratia marcescens RMIT; Table 17, 2 or 3 replicates): 16 µg/mL (≈ 31.7 µM); MMC (Serratia marcescens RMIT; Table 9, 35° C., 24 hours): 32 µg/mL; MMC (Serratia marcescens RMIT; Table 17, 2 or 3 replicates): 32 µg/mL; MIC ([3]; Table 9, 35° C., 24 hours): 32 µg/mL (≈ 63.3 µM); MIC ([3]; Table 17, 2 or 3 replicates): 32 µg/mL (≈ 63.3 µM); MMC ([3]; Table 9, 35° C., 24 hours): 64 µg/mL; MMC ([3]; Table 17, 2 or 3 replicates): 64 µg/mL |
| CC[C@@H](CO)NCCN[C@@H](CC)CO [Ethambutol] | 1 to 2.5 (≈ 4.89 to 12.2 µM) |  |  |  |  |  |  |  |  |  |  |  |  |  |  |  |  |  |  |  |  |
| [H]/N=C(/N)N[C@H]1[C@H](O)[C@@H](O)[C@H](O[C@@H]2O[C@@H](C)[C@](O)(C=O)[C@H]2O[C@@H]2O[C@@H](CO)[C@H](O)[C@@H](O)[C@@H]2NC)[C@@H](N/C(N)=N\[H])[C@@H]1O [Antibiotic 12, streptomycin] | 0.5 (≈ 0.86 µM) | − | − | − | − | − | − | + | − | − | − | − | − | − | − | − | − | − | + | + | Suppression of Growth (+/−) (Acinetobacter B-676): − |
| NNC(=O)c1ccncc1 [Isoniazid] | 0.02 to 0.1 (≈ 0.146 to 0.729 µM) |  |  |  |  |  |  |  |  |  |  |  |  |  |  |  |  |  |  |  |  |
| CO[C@H]1/C=C/O[C@@]2(C)Oc3c(C)c(O)c4c(O)c(c(/C=N/N5CCN(C)CC5)c(O)c4c3C2=O)NC(=O)/C(C)=C\C=C\[C@H](C)[C@H](O)[C@@H](C)[C@@H](O)[C@@H](C)[C@H](OC(C)=O)[C@@H]1C [Antibiotic 10, rifampicin] | 0.01 to 0.02 (≈ 0.0122 to 0.0243 µM) | − | + | − | + | − | − | + | + | + | − | − | + | − | + | + | − | − | + | + | Suppression of Growth (+/−) [20]: −; Suppression of Growth (+/−) [21]: −; Suppression of Growth (+/−) (Escherichia coli B-65): −; Suppression of Growth (+/−) [22]: −; Suppression of Growth (+/−) [23]: −; Suppression of Growth (+/−) (Escherichia coli M-17): −; Suppression of Growth (+/−) (Acinetobacter B-676): +; Suppression of Growth (+/−) (Escherichia coli B-683): −; Suppression of Growth (+/−) (Alkaligenes sp. B-689): − |
